PubChem BioAssay (NCI)
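All cell lines were grown in 96-well plates and treated with compound for 48 hours. TGI: concentration producing complete growth inhibition.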

Tests used:
Experiment in all cases: NCI tumour cell line growth inhibition, 48 h
[1] = tested on: ACHN renal
[2] = tested on: EKVX NSCLC
[3] = tested on: HCT-116 colon
[4] = tested on: HCT-15 colon
[5] = tested on: MDA-MB-231 breast
[6] = tested on: MDA-N
[7] = tested on: NCI-H23 lung
[8] = tested on: NCI/ADR-RES ovarian
[9] = tested on: RXF 393 renal
[10] = tested on: SK-MEL-2 melanoma
[11] = tested on: SNB-75 CNS
[12] = tested on: UACC-257 melanoma
[13] = tested on: UO-31 renal

Measured: TGI

C=CC/C(C(=O)OC)=C(/C(=O)OC)N(CCC)CCC
> 100 µM: all assays above

N#CC(C#N)=C1CCCS(=O)(=O)c2ccccc21
> 100 µM: all assays above
